Tests used:
[1] = tested on: FLK-1 receptor; assay: FLK-1 Assay (cellular/catalytic ELISA, VEGF-stimulated phosphotyrosine); assay type: cell-based; parameters: concentration or dose not given beside the values
How it was run: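 NIH3T3 C7#3 cells engineered to express Flk-1 were serum-starved overnight (0.1% FBS), then exposed to compound for 2 h at 37 °C (final dilution 1:200, 0.5% DMSO) before VEGF stimulation. Lysates captured on anti-FLK-1 antiserum plates; phosphotyrosine detected by UB40 antibody/POD-ABTS ELISA versus untreated controls.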

[2] = tested on: PDGF-R; assay: PDGF-R Assay (cellular ELISA, U1242 cells); assay type: cell-based; parameters: concentration or dose not given beside the values
How it was run: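 U1242 cells seeded in 0.5% serum, serum-starved, then exposed to compound for 2 hr at 37°C before 5–10 min ligand stimulation and lysis in HNTG. Lysate captured on receptor-antibody-coated plates; phosphotyrosine detected with polyclonal anti-pTyr, goat anti-rabbit IgG and ABTS/H2O2, A410 (ref 630 nm), versus untreated cells.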

SMILES	Flk Kinase % Inhibition (P.110) [1]	PDGF Kinase % Inhibition (P.119) [2]
CCc1ccc(C=C2C(=O)Nc3ccc(Br)c(C)c32)cc1 [10736/C09]	11.2%	−9.6%
COc1cccc(C=C2C(=O)Nc3ccc(Br)c(C)c32)c1 [10736/C10]	1.1%	1.4%
Cc1c(Br)ccc2c1C(=Cc1ccccc1Cl)C(=O)N2 [10736/C11]	7.2%	0.5%
CNS(=O)(=O)c1ccc2c(c1)C(=Cc1ccc(Cl)cc1)C(=O)N2 [10736/D02]	5.8%	−10.5%
CNS(=O)(=O)c1ccc2c(c1)C(=Cc1ccccc1C(F)(F)F)C(=O)N2 [10736/D03]	5.4%	14.5%
CNS(=O)(=O)c1ccc2c(c1)C(=Cc1cccc(C)c1)C(=O)N2 [10736/D04]	4.3%	15.0%
CNS(=O)(=O)c1ccc2c(c1)C(=Cc1ccc(C)cc1)C(=O)N2 [10736/D05]	15.2%	3.6%
CNS(=O)(=O)c1ccc2c(c1)C(=Cc1cccc(Cl)c1)C(=O)N2 [10736/D06]	12.2%	19.8%
CNS(=O)(=O)c1ccc2c(c1)C(=Cc1cccc(F)c1)C(=O)N2 [10736/D07]	7.0%	4.4%
CNS(=O)(=O)c1ccc2c(c1)C(=Cc1ccccc1F)C(=O)N2 [10736/D08]	11.0%	1.8%
CCc1ccc(C=C2C(=O)Nc3ccc(S(=O)(=O)NC)cc32)cc1 [10736/D09]	8.5%	−6.5%
CNS(=O)(=O)c1ccc2c(c1)C(=Cc1cccc(OC)c1)C(=O)N2 [10736/D10]	−11.6%	−2.1%
CNS(=O)(=O)c1ccc2c(c1)C(=Cc1ccccc1Cl)C(=O)N2 [10736/D11]	12.5%	−4.3%
O=C1Nc2ccc(S(=O)(=O)Nc3ccc(C(F)(F)F)cc3)cc2C1=Cc1ccc(Cl)cc1 [10736/E02]	8.2%	21.5%
O=C1Nc2ccc(S(=O)(=O)Nc3ccc(C(F)(F)F)cc3)cc2C1=Cc1ccccc1C(F)(F)F [10736/E03]	17.7%	96.1%
Cc1cccc(C=C2C(=O)Nc3ccc(S(=O)(=O)Nc4ccc(C(F)(F)F)cc4)cc32)c1 [10736/E04]	22.6%	24.6%

SMILES	Flk Kinase % Inhibition (P.110) [1]	PDGF Kinase % Inhibition (P.119) [2]
Cc1ccc(C=C2C(=O)Nc3ccc(S(=O)(=O)Nc4ccc(C(F)(F)F)cc4)cc32)cc1 [10736/E05]	30.2%	18.5%
O=C1Nc2ccc(S(=O)(=O)Nc3ccc(C(F)(F)F)cc3)cc2C1=Cc1cccc(Cl)c1 [10736/E06]	20.1%	10.6%
O=C1Nc2ccc(S(=O)(=O)Nc3ccc(C(F)(F)F)cc3)cc2C1=Cc1cccc(F)c1 [10736/E07]	15.3%	18.5%
O=C1Nc2ccc(S(=O)(=O)Nc3ccc(C(F)(F)F)cc3)cc2C1=Cc1ccccc1F [10736/E08]	19.3%	7.9%
CCc1ccc(C=C2C(=O)Nc3ccc(S(=O)(=O)Nc4ccc(C(F)(F)F)cc4)cc32)cc1 [10736/E09]	14.1%	−0.4%
COc1cccc(C=C2C(=O)Nc3ccc(S(=O)(=O)Nc4ccc(C(F)(F)F)cc4)cc32)c1 [10736/E10]	27.2%	26.8%
O=C1Nc2ccc(S(=O)(=O)Nc3ccc(C(F)(F)F)cc3)cc2C1=Cc1ccccc1Cl [10736/E11]	20.5%	0.9%
O=C1Nc2ccc(S(=O)(=O)N3CCOCC3)cc2C1=Cc1ccc(Cl)cc1 [10736/F02]	23.9%	−14.4%
O=C1Nc2ccc(S(=O)(=O)N3CCOCC3)cc2C1=Cc1ccccc1C(F)(F)F [10736/F03]	16.6%	−3.0%
Cc1cccc(C=C2C(=O)Nc3ccc(S(=O)(=O)N4CCOCC4)cc32)c1 [10736/F04]	16.5%	3.6%
Cc1ccc(C=C2C(=O)Nc3ccc(S(=O)(=O)N4CCOCC4)cc32)cc1 [10736/F05]	15.1%	−4.8%
O=C1Nc2ccc(S(=O)(=O)N3CCOCC3)cc2C1=Cc1cccc(Cl)c1 [10736/F06]	14.5%	12.3%
O=C1Nc2ccc(S(=O)(=O)N3CCOCC3)cc2C1=Cc1cccc(F)c1 [10736/F07]	16.6%	−4.3%
O=C1Nc2ccc(S(=O)(=O)N3CCOCC3)cc2C1=Cc1ccccc1F [10736/F08]	7.4%	−20.1%
CCc1ccc(C=C2C(=O)Nc3ccc(S(=O)(=O)N4CCOCC4)cc32)cc1 [10736/F09]	24.0%	2.7%
